The source made the active and inactive calls.
How the values were obtained:
HEK293 [1] = test: cells; settings: Homo sapiens
HEK293 [2] = test: cells; settings: Homo sapiens; remark: listed apart in the source
[3] = target: Intestinal-type alkaline phosphatase (Mus musculus, UniProt P24822); test: PubChem AID 488785; assay type: functional
[4] = target: T1, Alkaline phosphatase, tissue-nonspecific isozyme (Homo sapiens, UniProt P05186); test: TNAP enzyme inhibition by screening hits, dose response, selectivity assay for mouse IAP inhibitor project, biochemical, human TNAP, uHTS hits (AID 488906); assay type: functional
T1 sequence (P05186 whole entry): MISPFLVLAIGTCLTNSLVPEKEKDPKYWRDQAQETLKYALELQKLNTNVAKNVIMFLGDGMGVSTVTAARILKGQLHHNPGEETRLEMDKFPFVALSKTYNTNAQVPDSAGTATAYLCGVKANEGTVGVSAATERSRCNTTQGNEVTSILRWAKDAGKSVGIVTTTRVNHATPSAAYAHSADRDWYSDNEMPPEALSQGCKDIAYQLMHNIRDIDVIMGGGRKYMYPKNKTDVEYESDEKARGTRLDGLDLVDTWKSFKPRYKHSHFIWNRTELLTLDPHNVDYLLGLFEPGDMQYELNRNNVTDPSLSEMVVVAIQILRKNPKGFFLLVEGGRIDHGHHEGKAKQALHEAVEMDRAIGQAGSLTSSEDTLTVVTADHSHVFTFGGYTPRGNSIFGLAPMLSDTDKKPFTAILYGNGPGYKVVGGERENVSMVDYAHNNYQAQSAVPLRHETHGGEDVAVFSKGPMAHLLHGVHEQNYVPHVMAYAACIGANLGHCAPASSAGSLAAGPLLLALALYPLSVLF

[5] = target: Intestinal-type alkaline phosphatase (Homo sapiens, UniProt P09923); test: inhibition of human intestinal alkaline phosphatase – biochemical, dose response (AID 488876); assay type: functional
[6] = insulin promoter down-regulators in MIN6 cells, imaging, high-content screening, mouse beta cells (AID 1628); assay type: functional
[7] = cytotoxicity in MIN6 insulinoma cells, dose response, cytotoxicity control, cell-based, mouse insulinoma (AID 2122); assay type: functional;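 note: confirmatory high-throughput counterscreen run to flag cytotoxic compounds; mouse MIN-6 beta cells carrying an insulin promoter eGFP reporter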
[8] = inhibitors of intracellular T. cruzi replication, confirmation, NIH3T3 host cells, beta-gal luminescence (AID 2044); assay type: functional, cell-based;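 note: intracellular parasites grown in NIH/3T3 mouse fibroblasts as host cells; luminescent beta-galactosidase reporter signal from transgenic T. cruzi replicating inside host cells; inhibitors lower the luminescence signal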
[9] = cytotoxicity toward NIH3T3 fibroblasts, dose response, counter-screen, cell-based, ATP luminescence, mouse fibroblasts (AID 2010); assay type: functional;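 note: cells exposed to compound for about 90 hours before reading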
[10] = target: DNA dC->dU-editing enzyme APOBEC-3A (Homo sapiens, UniProt P31941); test: Dose Response confirmation of small molecule APOBEC3A DNA Deaminase Inhibitors via a fluorescence-based single-stranded DNA deaminase assay. [Related pubchem assays (depositor defined):AID493011, AID493024]; assay type: functional
[11] = target: DNA dC->dU-editing enzyme APOBEC-3G (Homo sapiens, UniProt Q9HC16); assay type: functional;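 note: Dose-response counterscreen measuring inhibition of APOBEC3G DNA deaminase activity, run while confirming APOBEC3A inhibitors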
INS1 = test: beta cell apoptosis inhibitors, cytokine rescue, dose response, luminescence, retest (AID 449756); assay type: functional, cell-based; settings: Rattus norvegicus;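 note: cell death triggered by IL-1 beta plus TNF-alpha plus IFN-gamma mixture; protective hits raise ATP signal compared with cytokine alone wells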
[12] = target: T2, RNA-binding protein pos-1 (Caenorhabditis elegans, UniProt G5EF15); test: inhibitors of POS-1/mex-3 RNA binding, dose response, biochemical, fluorescence polarization (AID 1964);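 note: purified POS-1 fused to maltose binding protein made in E. coli; potency of compounds blocking POS-1 binding to fluorescent RNA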
T2 sequence (G5EF15 whole entry): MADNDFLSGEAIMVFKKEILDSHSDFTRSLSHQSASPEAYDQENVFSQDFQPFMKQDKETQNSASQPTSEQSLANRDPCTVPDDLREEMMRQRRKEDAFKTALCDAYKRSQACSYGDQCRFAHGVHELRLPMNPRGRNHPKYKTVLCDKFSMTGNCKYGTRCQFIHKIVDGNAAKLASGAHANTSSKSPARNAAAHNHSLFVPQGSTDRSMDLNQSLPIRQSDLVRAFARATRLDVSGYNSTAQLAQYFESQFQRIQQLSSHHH

[13] = target: T3, Zinc finger protein mex-5 (Caenorhabditis elegans, UniProt Q9XUB2); test: MEX-5/TCR-2 RNA interaction inhibitors, dose response, biochemical, C. elegans, fluorescence polarization (AID 1960)
T3 sequence (Q9XUB2 whole entry): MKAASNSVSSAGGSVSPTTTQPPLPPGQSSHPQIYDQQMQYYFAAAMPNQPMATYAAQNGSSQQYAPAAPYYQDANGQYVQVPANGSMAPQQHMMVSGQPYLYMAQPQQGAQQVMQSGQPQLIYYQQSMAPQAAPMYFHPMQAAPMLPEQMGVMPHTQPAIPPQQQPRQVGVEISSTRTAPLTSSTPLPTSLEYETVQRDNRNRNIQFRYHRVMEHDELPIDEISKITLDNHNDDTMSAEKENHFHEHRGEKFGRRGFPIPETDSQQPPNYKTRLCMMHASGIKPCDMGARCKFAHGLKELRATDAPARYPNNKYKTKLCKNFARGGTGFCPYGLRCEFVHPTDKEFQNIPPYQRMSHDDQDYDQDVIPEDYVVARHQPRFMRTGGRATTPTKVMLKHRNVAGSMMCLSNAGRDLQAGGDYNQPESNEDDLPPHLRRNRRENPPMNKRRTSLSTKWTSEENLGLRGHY

[14] = target: T4, Voltage-gated N-type calcium channel alpha-1B subunit/Amyloid beta A4 precursor protein-binding family A member 1 (Homo sapiens, UniProt Q00975+Q02410); assay type: protein assay
[15] = target: T4, Voltage-gated N-type calcium channel alpha-1B subunit/Amyloid beta A4 precursor protein-binding family A member 1; assay type: protein assay; remark: listed apart in the source
[16] = target: T5, Endoribonuclease toxin MazF (Escherichia coli K-12, UniProt P0AE70); test: MazF toxin RNase activators, dose response, biochemical, fluorescence, single-stranded RNA substrate, uHTS hits (AID 588481); assay type: functional
T5 sequence (P0AE70 whole entry): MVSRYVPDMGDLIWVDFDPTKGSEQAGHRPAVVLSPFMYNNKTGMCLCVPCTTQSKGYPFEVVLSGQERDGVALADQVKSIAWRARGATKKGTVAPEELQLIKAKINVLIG

[17] = target: T5, Endoribonuclease toxin MazF; test: fluorescent RNA oligo signal without MazF, dose response, counter-screen for MazEF activator project, biochemical, fluorescence, single-stranded RNase substrate (AID 588502); assay type: functional
[18] = Shn3 3'UTR reporter inhibitors, dose response, cell-based, Clone20 osteoblasts, firefly luciferase, cherry-picked (AID 624132); assay type: functional;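 note: firefly luciferase luminescence from reporter carrying the Shn3 3'UTR in osteoblasts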
[19] = HepG2 cell cytotoxicity, dose response, cytotoxicity control for Shn3 inhibitor project, CellTiter-Glo, cherry-picked (AID 624134); assay type: functional, cell-based
[20] = control 3'UTR Renilla luciferase suppression, dose response, counter-screen for Shn3 inhibitor project, cell-based, Clone20-Shn3RL, cherry-picked (AID 624133); assay type: functional
[21] = inhibitors of HIV Env-driven cell fusion, dose response, cherry-pick (AID 652057); assay type: functional, cell-based
[22] = CEM21 lymphoblast cell cytotoxicity, dose response, cytotoxicity control for viral fusion inhibitor project, CellTiter-Glo luminescence, cherry-picked (AID 652042); assay type: functional, cell-based;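 note: potency for signal decrease meaning cytotoxicity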
[23] = ZM109 Env clade C HIV-1 fusion inhibitors, dose response, HeLa effector, CEM target cells, luciferase, cherry-pick (AID 652058); assay type: functional, cell-based
[24] = off-target signal loss in HeLa-CEM21 co-culture – HeLa F-luc CTL cells, cherry-picked, counter-screen for HIV-1 Env fusion inhibitor project, dose response (AID 652040); assay type: functional, cell-based;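 note: potency for signal decrease marking cytotoxic or nonspecific inhibition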
[25] = inhibitors of clade B AD8 Env fusion, dose response, cell-based, cherry-pick (AID 652062); assay type: functional;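 note: luciferase signal from cell-cell fusion driven by HIV-1 clade B AD8 Env; potency is for inhibitors of fusion seen as a drop in luminescence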

T4 sequence (Q00975 whole entry): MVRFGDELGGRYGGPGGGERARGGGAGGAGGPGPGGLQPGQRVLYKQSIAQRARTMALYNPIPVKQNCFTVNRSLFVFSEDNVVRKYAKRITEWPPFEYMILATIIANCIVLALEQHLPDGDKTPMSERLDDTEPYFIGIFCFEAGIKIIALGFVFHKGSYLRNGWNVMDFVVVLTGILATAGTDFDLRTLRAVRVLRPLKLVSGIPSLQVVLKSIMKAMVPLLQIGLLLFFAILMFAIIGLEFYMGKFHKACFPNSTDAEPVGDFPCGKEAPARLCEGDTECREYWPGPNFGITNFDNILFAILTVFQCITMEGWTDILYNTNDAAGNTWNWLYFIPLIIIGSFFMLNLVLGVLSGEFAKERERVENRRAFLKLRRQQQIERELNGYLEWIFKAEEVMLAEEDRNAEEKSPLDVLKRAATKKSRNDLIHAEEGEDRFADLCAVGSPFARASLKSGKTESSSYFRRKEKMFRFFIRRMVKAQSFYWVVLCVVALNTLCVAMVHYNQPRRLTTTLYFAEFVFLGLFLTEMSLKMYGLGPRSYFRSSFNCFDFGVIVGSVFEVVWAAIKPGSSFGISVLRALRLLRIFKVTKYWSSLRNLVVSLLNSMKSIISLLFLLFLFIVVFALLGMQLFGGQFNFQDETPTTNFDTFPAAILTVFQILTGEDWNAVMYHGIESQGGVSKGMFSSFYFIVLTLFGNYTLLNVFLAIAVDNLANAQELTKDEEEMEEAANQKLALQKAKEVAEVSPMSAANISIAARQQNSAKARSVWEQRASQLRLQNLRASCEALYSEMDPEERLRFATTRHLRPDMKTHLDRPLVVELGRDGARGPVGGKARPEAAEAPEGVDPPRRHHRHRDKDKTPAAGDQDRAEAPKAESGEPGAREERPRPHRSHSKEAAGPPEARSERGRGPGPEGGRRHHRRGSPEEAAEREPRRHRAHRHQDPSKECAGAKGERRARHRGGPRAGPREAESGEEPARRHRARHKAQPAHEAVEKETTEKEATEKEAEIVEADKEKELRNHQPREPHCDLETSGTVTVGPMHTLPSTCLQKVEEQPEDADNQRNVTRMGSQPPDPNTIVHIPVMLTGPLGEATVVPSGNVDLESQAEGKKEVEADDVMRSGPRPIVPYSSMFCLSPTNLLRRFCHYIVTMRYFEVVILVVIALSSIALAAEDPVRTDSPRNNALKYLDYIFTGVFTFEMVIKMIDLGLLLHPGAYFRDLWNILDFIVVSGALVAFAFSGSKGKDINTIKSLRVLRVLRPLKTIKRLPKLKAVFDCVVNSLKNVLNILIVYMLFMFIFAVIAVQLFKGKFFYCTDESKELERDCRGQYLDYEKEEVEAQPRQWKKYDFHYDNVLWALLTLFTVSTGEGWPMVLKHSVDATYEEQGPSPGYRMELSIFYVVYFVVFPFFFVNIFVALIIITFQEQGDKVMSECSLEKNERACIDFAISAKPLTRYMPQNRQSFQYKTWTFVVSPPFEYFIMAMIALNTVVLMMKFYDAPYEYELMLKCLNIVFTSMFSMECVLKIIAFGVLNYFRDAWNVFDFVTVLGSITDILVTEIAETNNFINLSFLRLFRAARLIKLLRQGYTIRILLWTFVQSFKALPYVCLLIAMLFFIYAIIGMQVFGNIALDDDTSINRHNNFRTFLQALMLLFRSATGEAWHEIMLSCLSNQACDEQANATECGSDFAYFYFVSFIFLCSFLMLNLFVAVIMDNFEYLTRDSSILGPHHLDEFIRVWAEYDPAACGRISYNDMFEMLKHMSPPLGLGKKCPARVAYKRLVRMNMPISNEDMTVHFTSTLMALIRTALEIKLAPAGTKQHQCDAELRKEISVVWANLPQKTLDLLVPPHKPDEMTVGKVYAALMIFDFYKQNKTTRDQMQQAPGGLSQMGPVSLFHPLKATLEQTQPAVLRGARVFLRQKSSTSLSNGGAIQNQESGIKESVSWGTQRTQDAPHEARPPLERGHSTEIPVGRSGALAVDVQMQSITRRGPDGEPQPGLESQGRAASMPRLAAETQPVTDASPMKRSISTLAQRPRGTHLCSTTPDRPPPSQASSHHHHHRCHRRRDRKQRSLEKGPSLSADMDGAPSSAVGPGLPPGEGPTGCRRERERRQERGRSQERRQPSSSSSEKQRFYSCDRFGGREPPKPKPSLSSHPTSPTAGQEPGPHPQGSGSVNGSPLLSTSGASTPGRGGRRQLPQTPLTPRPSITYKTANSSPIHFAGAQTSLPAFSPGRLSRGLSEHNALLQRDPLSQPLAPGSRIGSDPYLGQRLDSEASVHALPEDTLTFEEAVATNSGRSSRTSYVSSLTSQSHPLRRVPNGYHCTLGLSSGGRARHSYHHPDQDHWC
T4 sequence (Q02410 whole entry): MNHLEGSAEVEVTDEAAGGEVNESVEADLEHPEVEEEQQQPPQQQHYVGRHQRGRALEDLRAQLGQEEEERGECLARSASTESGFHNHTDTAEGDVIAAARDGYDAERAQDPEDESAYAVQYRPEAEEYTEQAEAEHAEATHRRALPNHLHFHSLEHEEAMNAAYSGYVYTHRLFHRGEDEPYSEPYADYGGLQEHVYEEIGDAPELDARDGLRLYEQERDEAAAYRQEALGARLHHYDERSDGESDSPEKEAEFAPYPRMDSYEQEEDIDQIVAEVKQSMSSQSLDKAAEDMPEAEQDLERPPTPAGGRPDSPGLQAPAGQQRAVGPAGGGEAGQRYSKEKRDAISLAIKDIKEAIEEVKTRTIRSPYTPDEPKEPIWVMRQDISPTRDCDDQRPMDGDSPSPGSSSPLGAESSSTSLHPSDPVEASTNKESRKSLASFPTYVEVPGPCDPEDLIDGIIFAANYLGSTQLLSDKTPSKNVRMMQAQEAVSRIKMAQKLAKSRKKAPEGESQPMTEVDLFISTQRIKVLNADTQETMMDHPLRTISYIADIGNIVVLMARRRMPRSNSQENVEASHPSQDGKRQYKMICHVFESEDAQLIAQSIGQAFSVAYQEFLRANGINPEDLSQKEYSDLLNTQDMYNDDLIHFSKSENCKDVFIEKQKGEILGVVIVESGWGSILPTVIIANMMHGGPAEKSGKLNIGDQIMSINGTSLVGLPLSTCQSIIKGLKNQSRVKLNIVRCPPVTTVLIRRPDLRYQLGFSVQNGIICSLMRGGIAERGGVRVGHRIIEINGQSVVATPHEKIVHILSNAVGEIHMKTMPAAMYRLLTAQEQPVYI
Intestinal-type alkaline phosphatase (Homo sapiens, UniProt P09923), sequence (P09923 whole entry): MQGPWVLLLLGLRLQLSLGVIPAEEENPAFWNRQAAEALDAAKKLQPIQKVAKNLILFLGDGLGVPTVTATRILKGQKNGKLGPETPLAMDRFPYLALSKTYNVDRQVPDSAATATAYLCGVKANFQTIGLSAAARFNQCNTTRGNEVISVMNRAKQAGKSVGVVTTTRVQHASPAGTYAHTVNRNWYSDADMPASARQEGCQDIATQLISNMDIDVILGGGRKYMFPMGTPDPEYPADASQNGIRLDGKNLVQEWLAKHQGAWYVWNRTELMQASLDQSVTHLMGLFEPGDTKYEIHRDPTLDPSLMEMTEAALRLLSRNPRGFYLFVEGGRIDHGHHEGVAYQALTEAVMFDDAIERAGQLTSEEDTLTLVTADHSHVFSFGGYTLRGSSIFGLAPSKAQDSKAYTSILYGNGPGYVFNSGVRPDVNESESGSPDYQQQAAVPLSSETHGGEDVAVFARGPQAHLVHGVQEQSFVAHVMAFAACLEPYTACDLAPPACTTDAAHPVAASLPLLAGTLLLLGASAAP
Intestinal-type alkaline phosphatase (Mus musculus, UniProt P24822), sequence (P24822 whole entry): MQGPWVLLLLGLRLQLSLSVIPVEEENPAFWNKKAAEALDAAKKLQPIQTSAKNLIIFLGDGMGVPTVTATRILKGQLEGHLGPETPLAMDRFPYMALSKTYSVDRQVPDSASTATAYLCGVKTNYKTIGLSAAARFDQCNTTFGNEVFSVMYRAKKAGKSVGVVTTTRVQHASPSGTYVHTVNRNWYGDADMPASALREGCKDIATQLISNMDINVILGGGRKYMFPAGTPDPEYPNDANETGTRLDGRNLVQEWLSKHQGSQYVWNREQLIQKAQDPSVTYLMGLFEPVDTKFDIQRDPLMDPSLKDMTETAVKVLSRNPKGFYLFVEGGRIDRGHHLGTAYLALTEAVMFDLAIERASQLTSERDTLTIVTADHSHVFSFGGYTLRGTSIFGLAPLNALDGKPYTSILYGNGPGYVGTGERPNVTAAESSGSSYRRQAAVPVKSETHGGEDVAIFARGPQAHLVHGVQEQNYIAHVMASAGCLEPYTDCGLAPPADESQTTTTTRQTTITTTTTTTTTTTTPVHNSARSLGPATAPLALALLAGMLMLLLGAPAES
DNA dC->dU-editing enzyme APOBEC-3G, sequence (Q9HC16 whole entry): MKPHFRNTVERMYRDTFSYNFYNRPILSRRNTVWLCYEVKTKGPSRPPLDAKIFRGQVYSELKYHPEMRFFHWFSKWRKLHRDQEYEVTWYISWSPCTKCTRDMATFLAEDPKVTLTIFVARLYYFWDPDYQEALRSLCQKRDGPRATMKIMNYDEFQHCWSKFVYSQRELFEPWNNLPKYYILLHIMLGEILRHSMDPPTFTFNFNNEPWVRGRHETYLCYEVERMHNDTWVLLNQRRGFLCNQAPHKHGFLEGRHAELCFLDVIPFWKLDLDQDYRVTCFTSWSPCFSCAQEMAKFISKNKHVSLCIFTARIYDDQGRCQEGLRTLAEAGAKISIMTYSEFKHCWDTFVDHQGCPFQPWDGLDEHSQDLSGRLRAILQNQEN
DNA dC->dU-editing enzyme APOBEC-3A, sequence (P31941 whole entry): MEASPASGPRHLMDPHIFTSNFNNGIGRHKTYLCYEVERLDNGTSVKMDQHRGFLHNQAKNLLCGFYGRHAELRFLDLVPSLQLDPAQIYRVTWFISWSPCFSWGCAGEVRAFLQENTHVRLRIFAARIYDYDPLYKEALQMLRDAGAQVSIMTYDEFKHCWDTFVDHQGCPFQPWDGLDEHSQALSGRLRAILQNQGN

In the case of `CCCCC1(CC(=O)OCC)C(=O)N(c2ccccc2)N(c2ccccc2)C1=O`, the EC50 (HEK293 [1]) is reported as > 59.6 µM (inactive) and the EC50 (HEK293 [2]) is reported as > 59.6 µM (inactive).
For `NS(=O)(=O)c1cc(C(=O)N=Nc2c(O)[nH]c3ccccc23)ccc1Cl`, the IC50 [3] was 42.4 µM (active), the IC50 [4] was > 100 µM (inactive) and the IC50 [5] was > 100 µM (inactive).
For `CCCCCCCC[n+]1c(C)n(-c2ccccc2)c2ccc(NC(C)=O)cc21`, the IC50 [6] was < 0.25 µM (active), the IC50 [7] was < 0.25 µM (active) and the EC50 [8] was 0.768 µM (active). For the same compound, the EC50 [9] was > 60 µM (not active), the IC50 [10] was 1.44 µM (active) and the IC50 [11] was 2.66 µM (active). The AC50 (INS1) was 2.41 µM (active).
In the case of `CCOC(=O)Cn1c2ccc(OC)cc2c2nc3ccccc3nc21`, the EC50 [12] is reported as 0.862 µM (inconclusive), the EC50 [13] is reported as 2.26 µM (active) and the IC50 [14] is reported as 4.34 µM (active). For the same compound, the IC50 [15] was > 50 µM (inactive), the EC50 [16] was > 99 µM (inactive) and the EC50 [17] was 50.7 µM (inactive).
With `CCCCCOc1ccc(C(=O)CCC(=O)NNC(=O)c2ccncc2)cc1` the IC50 [3] was 14.7 µM (active), the IC50 [4] was > 100 µM (inactive) and the IC50 [5] was 25.6 µM (active).
With `NC(CCc1ccccc1)c1csc(NC(=O)Nc2ccccc2Oc2ccccc2)n1` (stereo unspecified) the AC50 [18] was 7.18 µM (active), the AC50 [19] was 13.5 µM (active) and the AC50 [20] was 13.6 µM (active). For the same compound, the AC50 [21] was 0.824 µM (active), the AC50 [22] was 11.4 µM (active) and the AC50 [23] was 3.38 µM (active). For the same compound, the AC50 [24] was 1.65 µM (active), the AC50 [25] was 4.98 µM (active) and the EC50 (HEK293 [1]) was > 59.6 µM (inactive). For the same compound, the EC50 (HEK293 [2]) was > 59.6 µM (inactive).

Source: ChEMBL document CHEMBL1201862, “PubChem BioAssay data set” (2004)
